From ChEMBL document CHEMBL4732114, “Design and structural optimization of novel 2H-benzo[h]chromene derivatives that target AcrB and reverse bacterial multidrug resistance” (Eur J Med Chem, 2021)
Converted amounts (≈) assume the structure as drawn.

Columns and labels:
[1] = biological target: T1, Multidrug efflux pump subunit AcrB (Escherichia coli (strain K12)) (UniProt P31224); details: Escherichia coli BW25113; dose 256.0 µg/ml
T1 sequence (whole entry): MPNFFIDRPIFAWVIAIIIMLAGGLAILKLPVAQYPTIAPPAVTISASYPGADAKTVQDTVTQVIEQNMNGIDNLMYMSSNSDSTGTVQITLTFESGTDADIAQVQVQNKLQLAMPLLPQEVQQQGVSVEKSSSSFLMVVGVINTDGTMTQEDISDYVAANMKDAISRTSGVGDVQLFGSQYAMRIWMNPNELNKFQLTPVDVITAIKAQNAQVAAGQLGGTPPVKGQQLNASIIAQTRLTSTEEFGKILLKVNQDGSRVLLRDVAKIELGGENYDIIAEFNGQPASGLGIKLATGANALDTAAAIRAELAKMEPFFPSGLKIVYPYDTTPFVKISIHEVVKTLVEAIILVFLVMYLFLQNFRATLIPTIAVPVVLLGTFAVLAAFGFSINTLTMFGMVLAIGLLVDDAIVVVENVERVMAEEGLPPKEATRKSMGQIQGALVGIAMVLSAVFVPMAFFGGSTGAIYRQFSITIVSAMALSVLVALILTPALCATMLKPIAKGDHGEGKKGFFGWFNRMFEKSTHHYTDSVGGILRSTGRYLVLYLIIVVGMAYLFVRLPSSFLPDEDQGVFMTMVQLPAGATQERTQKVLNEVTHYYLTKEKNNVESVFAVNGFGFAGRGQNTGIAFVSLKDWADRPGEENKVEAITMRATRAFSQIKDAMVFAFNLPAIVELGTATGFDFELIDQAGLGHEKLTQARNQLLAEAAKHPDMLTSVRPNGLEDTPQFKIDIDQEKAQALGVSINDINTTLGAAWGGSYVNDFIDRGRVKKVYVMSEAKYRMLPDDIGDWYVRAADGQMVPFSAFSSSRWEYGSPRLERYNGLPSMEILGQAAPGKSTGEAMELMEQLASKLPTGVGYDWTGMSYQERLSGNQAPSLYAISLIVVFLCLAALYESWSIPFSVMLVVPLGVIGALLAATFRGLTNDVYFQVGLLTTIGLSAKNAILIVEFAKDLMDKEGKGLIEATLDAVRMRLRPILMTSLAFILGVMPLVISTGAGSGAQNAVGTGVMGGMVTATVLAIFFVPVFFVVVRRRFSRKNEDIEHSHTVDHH

[2] = biological target: T1, Multidrug efflux pump subunit AcrB (Escherichia coli (strain K12)); assay: Inhibition of AcrB in multidrug-resistant Escherichia coli BW25113 assessed as potentiation of tetraphenylphosphonium-induced antibacterial activity by measuring tetraphenylphosphonium MIC at 512 ug/ml by checkerboard titration method (reference value: 1024 ug/ml); details: dose 512.0 µg/ml
[3] = biological target: T1, Multidrug efflux pump subunit AcrB (Escherichia coli (strain K12)); assay: Inhibition of AcrB in multidrug-resistant Escherichia coli BW25113 assessed as potentiation of chloramphenicol-induced antibacterial activity by measuring chloramphenicol MIC at 512 ug/ml by checkerboard titration method (reference value: 8 ug/ml); details: dose 512.0 µg/ml
[4] = biological target: T1, Multidrug efflux pump subunit AcrB (Escherichia coli (strain K12)); assay: Inhibition of AcrB in multidrug-resistant Escherichia coli BW25113 assessed as potentiation of chloramphenicol-induced antibacterial activity by measuring chloramphenicol MIC at 256 ug/ml by checkerboard titration method (reference value: 8 ug/ml); details: dose 256.0 µg/ml
[5] = biological target: T1, Multidrug efflux pump subunit AcrB (Escherichia coli (strain K12)); details: Escherichia coli BW25113; dose 512.0 µg/ml
[6] = biological target: T1, Multidrug efflux pump subunit AcrB (Escherichia coli (strain K12)); assay: Inhibition of AcrB in multidrug-resistant Escherichia coli BW25113 assessed as potentiation of levofloxacin-induced antibacterial activity by measuring levofloxacin MIC at 256 ug/ml by checkerboard titration method (reference value: 0.06 ug/ml); details: dose 256.0 µg/ml
[7] = biological target: T1, Multidrug efflux pump subunit AcrB (Escherichia coli (strain K12)); assay: Inhibition of AcrB in multidrug-resistant Escherichia coli BW25113 assessed as potentiation of erythromycin-induced antibacterial activity by measuring erythromycin MIC at 256 ug/ml by checkerboard titration method (reference value: 64 ug/ml); details: dose 256.0 µg/ml
[8] = biological target: T1, Multidrug efflux pump subunit AcrB (Escherichia coli (strain K12)); assay: Inhibition of AcrB in multidrug-resistant Escherichia coli BW25113 assessed as potentiation of levofloxacin-induced antibacterial activity by measuring levofloxacin MIC at 512 ug/ml by checkerboard titration method (reference value: 0.06 ug/ml); details: dose 512.0 µg/ml
[9] = biological target: T1, Multidrug efflux pump subunit AcrB (Escherichia coli (strain K12)); assay: Inhibition of AcrB in multidrug-resistant Escherichia coli BW25113 assessed as potentiation of erythromycin-induced antibacterial activity by measuring erythromycin MIC at 512 ug/ml by checkerboard titration method (reference value: 64 ug/ml); details: dose 512.0 µg/ml
[10] = biological target: T1, Multidrug efflux pump subunit AcrB (Escherichia coli (strain K12)); assay: Inhibition of AcrB in multidrug-resistant Escherichia coli BW25113 assessed as potentiation of tetraphenylphosphonium-induced antibacterial activity by measuring tetraphenylphosphonium MIC at 256 ug/ml by checkerboard titration method (reference value: 1024 ug/ml); details: dose 256.0 µg/ml

CC(C)CCOc1cc(C(N)=O)cc2ccccc12
MIC [1]: 16 µg/mL (≈ 62.2 µM) | MIC [2]: 256 µg/mL | MIC [3]: 4 µg/mL | MIC [4]: 8 µg/mL | MIC [5]: 16 µg/mL (≈ 62.2 µM) | MIC [6]: 0.06 µg/mL | MIC [7]: 64 µg/mL | MIC [8]: 0.06 µg/mL | MIC [9]: 32 µg/mL | MIC [10]: 512 µg/mL
